Results reported in US10414797B2, “Gelatinase inhibitors and use thereof” (Iproteos S.L, priority 2015, dated 2019).
Where a SMILES comes first, the peptide text is derived from it. [ ]: non-standard residue; d: D form. The star is where a group is joined. ξ: configuration not given here. NMeIle(3ξ) = CCC(C)[C@H](NC)C(=O)O; NMeQ = CN[C@@H](CCC(N)=O)C(=O)O; Ile(3ξ) = CCC(C)[C@H](N)C(=O)O; Hexanoyl = CCCCCC(=O)*; NHOH = ON*

Tests used:
MMP-2 = MMP-2 (Homo sapiens (Human), UniProt P08253); experiment: MMP-2 inhibition assay (fluorimetric, DQ gelatin substrate); assay type: biochemical; conditions: recombinant MMP-2 (CHO cells) 85 ng/mL, DQ gelatin 50 μg/mL, 2 hours at room temperature, pH 7.6
Protocol: (§1) All the experiments were done in 1× reaction buffer, which was obtained from a 10× reaction buffer solution. The content of the 10× reaction buffer was: 50 mL of 0.5 M Tris-HCl, 1.5 M NaCl, 50 mM CaCl2 and 2 mM sodium azide at pH 7.6. To obtain the 1× reaction buffer 4 mL of the 10× reaction buffer were diluted in 36 mL of H2O.
Recombinant MMP-2 expressed in Chinese hamster ovary (CHO) cells was obtained from Merck-Millipore (catalog number PF023-5UG). DQ gelatin from pig skin fluorescein conjugated (MMP-2 substrate) was obtained from Life Technologies (catalog number E12055).
Preparation of the MMP-2 for the activity assay: MMP-2 was provided as a stock solution (0.1 mg/mL). The enzyme was diluted in 1× reaction buffer to a final concentration of 5 μg/mL.
(§2) Preparation of the DQ gelatin (substrate) solution for the activity assay: the solid form of the substrate was dissolved in water in order to obtain a stock solution of 1 mg/mL.
(§3) Procedure: The enzymatic assays were performed in 96-well microtiter plate, which allowed simultaneous monitoring of multiple reactions. For each reaction, 86.3 μL of 1× reaction buffer (pH 7.6), 1.7 μL of MMP-2 (final concentration 85 ng/mL) and 2 μL of the corresponding new compound were added to each well. A stock solution of new compound was prepared in DMSO (100 mM), and dilutions were prepared from this stock solution with DMSO. Finally, to the mixture contained in each well 10 μL of the substrate were added (final concentration 50 μg/mL). The reaction was incubated for 2 hours at room temperature in an orbital shaker (100 rpm).
(§4) The inhibitory activity of the new compound was measured fluorimetrically. The excitation and emission wavelengths were 483 and 525 nm, respectively.
(§5) Inhibitory activity at several concentration points (ranging from 100 pM to 200 μM MMP) were measured for each compound. The inhibitory activity on MMP-2 and MMP-9 was calculated according to eq 1. For each new compound, the fluorescence in the presence (a) and in the absence (b) of the corresponding MMP was measured. The maximum fluorescence (0% inhibitory activity) was obtained from a sample of the corresponding MMP in the absence of inhibitory compounds. To estimate the inhibitory potency of the novel compounds, activities were plotted against the log concentration of the compound, adjusting to a sigmoid curve using GraphPad Prism software, and the IC50 value, defined as the concentration of compound required to inhibit 50% of the corresponding MMP activity, was determined from resulting curve.
(§6) a corresponds to fluorescence intensity in the presence of substrate+test compound+MMP
(§7) b corresponds to the fluorescence intensity in the presence of substrate+tested compound
(§8) c corresponds to the fluorescence intensity in the presence of substrate+MMP
(§9) d corresponds to the fluorescence intensity of the presence of substrate

MMP-9 = MMP-9 inhibition assay (fluorimetric, DQ gelatin substrate); assay type: biochemical; conditions: recombinant MMP-9 (Merck-Millipore for examples 1 to 9 and comparative examples; Enzo for examples 10 to 16), DQ gelatin 50 μg/mL, 4 hours at room temperature, pH 7.6
Protocol: as §1
Recombinant MMP-9 expressed was obtained from Merck-Millipore (catalog number PF140-5UG, used in examples 1 to 9 and comparative examples) and Enzo (catalog number-SE360-0010, used in examples 10 to 16). DQ gelatin from pig skin fluorescein conjugated (MMP-9 substrate) was obtained from Life Technologies (catalog number E12055).
Preparation of the MMP-9 for the activity assay: MMP-9 was provided as a stock solution (0.1 mg/mL). The enzyme was diluted in 1× reaction buffer to a final concentration of 5 μg/mL.
as §2
as §3, with “reaction, 84.6” for “reaction, 86.3”, “7.6), […]” for “7.6), 1.7”, “of MMP-9” for “of MMP-2”, “for 4” for “for 2”
as §4, §5, §6, §7, §8, §9

Chain of MMP-2 (P08253 110-660): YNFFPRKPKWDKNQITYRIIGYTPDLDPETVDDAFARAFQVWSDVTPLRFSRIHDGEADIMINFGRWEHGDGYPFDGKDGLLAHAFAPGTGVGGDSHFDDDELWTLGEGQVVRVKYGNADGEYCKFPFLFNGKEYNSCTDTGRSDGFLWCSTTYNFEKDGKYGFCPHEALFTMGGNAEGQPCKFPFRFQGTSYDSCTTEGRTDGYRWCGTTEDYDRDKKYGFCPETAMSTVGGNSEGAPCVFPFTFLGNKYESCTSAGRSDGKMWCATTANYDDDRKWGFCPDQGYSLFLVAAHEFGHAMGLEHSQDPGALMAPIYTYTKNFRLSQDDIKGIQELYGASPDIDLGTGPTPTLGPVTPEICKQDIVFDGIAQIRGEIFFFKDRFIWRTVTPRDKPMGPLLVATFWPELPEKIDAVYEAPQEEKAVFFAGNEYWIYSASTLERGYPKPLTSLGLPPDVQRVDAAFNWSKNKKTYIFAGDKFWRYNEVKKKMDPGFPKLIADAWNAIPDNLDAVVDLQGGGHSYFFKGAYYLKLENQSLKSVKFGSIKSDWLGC
Chain of MMP-9 (P14780 107-707 limits assumed): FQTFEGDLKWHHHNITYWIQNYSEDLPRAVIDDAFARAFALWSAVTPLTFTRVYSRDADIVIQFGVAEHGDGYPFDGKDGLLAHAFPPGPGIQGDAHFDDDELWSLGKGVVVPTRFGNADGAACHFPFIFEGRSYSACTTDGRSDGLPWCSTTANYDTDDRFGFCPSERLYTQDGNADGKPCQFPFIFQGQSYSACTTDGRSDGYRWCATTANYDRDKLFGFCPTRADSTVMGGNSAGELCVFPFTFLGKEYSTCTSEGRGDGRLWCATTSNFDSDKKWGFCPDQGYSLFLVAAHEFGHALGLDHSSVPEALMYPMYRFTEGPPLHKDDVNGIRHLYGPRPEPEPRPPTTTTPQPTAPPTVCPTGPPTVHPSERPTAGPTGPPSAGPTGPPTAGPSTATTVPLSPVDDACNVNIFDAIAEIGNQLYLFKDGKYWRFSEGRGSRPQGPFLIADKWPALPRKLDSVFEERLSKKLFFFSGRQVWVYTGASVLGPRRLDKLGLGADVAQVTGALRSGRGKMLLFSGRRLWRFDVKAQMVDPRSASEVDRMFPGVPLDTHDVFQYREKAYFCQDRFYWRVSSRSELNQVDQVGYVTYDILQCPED

CCC(C)[C@@H](C(=O)N[C@@H](Cc1c[nH]c2ccccc12)C(=O)NO)N(C)C(=O)[C@@H]1CCCN1C(C)=O (stereo partly drawn) [Example C21, (2S)-1-acetyl-N-[(1S)-1-[[(1S)-2-(hydroxyamino)-1-(1H-indol-3-ylmethyl)-2-oxo-ethyl]carbamoyl]-2-methyl-butyl]-N-methyl-pyrrolidine-2-carboxamide, reference compound] (Ac-Pro-[NMeIle(3ξ)]-Trp-{NHOH})
IC50 (MMP-2): 110 µM
IC50 (MMP-9): 16 µM

CCC(C)[C@H](NC(=O)[C@H](Cc1c[nH]c2ccccc12)NC(=O)[C@H](CCC(N)=O)NC(C)=O)C(=O)NO (stereo partly drawn) [Example C18, (2 S)-2-acetamido-N-[(1S)-2-[[(1S)-1-(hydroxycarbamoyl)-2-methyl-butyl]amino]-1-(1H-indol-3-ylmethyl)-2-oxo-ethyl]pentanediamide, reference compound] (Ac-Gln-Trp-[Ile(3ξ)]-{NHOH})
IC50 (MMP-2): 710 µM
IC50 (MMP-9): 240 µM

CCC(C)[C@H](NC(=O)[C@@H]1CCCN1C(=O)[C@H](CCC(N)=O)NC(C)=O)C(=O)NO (stereo partly drawn) [Example C19, (2S)-1-[(2S)-2-acetamido-5-amino-5-oxo-pentanoyl]-N-[(1S)-1-(hydroxycarbamoyl)-2-methyl-butyl]pyrrolidine-2-carboxamide, reference compound] (Ac-Gln-Pro-[Ile(3ξ)]-{NHOH})
IC50 (MMP-2): > 2000 µM
IC50 (MMP-9): > 2000 µM

CCCCCC(=O)N1CCC[C@H]1C(=O)N(C)[C@@H](CCC(N)=O)C(=O)N[C@@H](Cc1c[nH]c2ccccc12)C(=O)NO [Example C23, (2S)-2-[[(SS)-1-hexanoylpyrrolidine-2-carbonyl)-methyl-amino]-N-[(1S)-2-(hydroxyamino)-1-(1H-indol-3-ylmethyl)-2-oxo-ethyl]pentanediamide, reference compound] (Hexanoyl-Pro-[NMeQ]-Trp-{NHOH})
IC50 (MMP-2): > 2000 µM
IC50 (MMP-9): > 1000 µM
